Literature values, collected in PMC2574912 (Life sciences, 2008).

Assays:
[1] = system: non-AT1, non-AT2 binding site in rat brain; details: sulfhydryl reducing agents, ref Karamyan and Speth, 2007
AT2 receptor = details: PCMB; ref Karamyan, Speth unpublished observations
[2] = system: AT-1 angiotensin receptor; details: presence of PCMB; ref Karamyan and Speth, 2007

| Effect on binding of 125I-Ang II to the non-AT1, non-AT2 binding site [1] | SMILES | Effect on AT2 receptor binding (AT2 receptor) | Effect on AT1 receptor binding [2] |
| --- | --- | --- | --- |
| inhibit the binding | O[C@@H](CS)[C@@H](O)CS (racemic) [dithiothreitol] |  |  |
|  | O=C(O)c1cc[c]([Hg][Cl])cc1 [PCMB, parachloromercuribenzoate] | not inhibited | inactivated |
| inhibit the binding | OCCS [β-mercaptoethanol] |  |  |
